Laboratory results as given in patent publication US20240390298A1, “CYCLOHEXYL BETA-HYDROXY ALKYL AMINES AND MEDICAL USES THEREOF” (ATROGI AB, priority 2021, published 2024).
Structures can show the parent of a compound that is named as a salt.

Assays:
L6-myotubes [1] = assay: Measurement of intracellular cAMP levels in differentiated L6 cells (alpha screen cAMP kit), compared to isoproterenol; format: cell-based; details: agonist 1×10^−5 M, 15 min; for Emax at 10 µM: Rattus norvegicus, L6, 0.25 h, read-out: Biological example 2: intracellular cAMP levels, activity compared to that of isoproterenol
Description: (§1) L6-myoblasts were grown in Dulbecco's Modified Eagle's Medium (DMEM) containing 1 g/L glucose supplemented with 10% fetal bovine serum, 2 mM L-Glutamine, 50 U/mL penicillin, 50 μg/mL streptomycin and 10 mM HEPES. Cells were plated at 1×10^5 cells per mL in 24-well plates. After reaching 90% confluence the cells were grown in medium containing 2% FBS for 7 days where upon cells differentiated into myotubes.
Differentiated cells were serum-starved overnight and stimulated with an agonist, final concentration 1×10^−5 M, for 15 min in stimulation buffer (HBSS supplemented with 1% BSA, 5 mM HEPES and 1 mM IBMX, pH 7.4). The medium was aspirated and 100 μL of 95% EtOH was added to each well of the 24-well plate and cells were kept at −20° C. overnight. The EtOH was allowed to evaporate and 500 μL of lysis buffer (1% BSA, 5 mM HEPES and 0.3% Tween-20, pH 7.4) was added to each well. The plate was kept at −80° C. for 30 min and then at −20° C. until the day of detection when the samples were thawed. Intracellular cAMP levels were detected using an alpha screen cAMP kit (6760635D from Perkin Elmer). The activity for each compound is compared to that of isoproterenol.

L6-myotubes [2] = assay: Glucose uptake in differentiated L6-myotubes (3H-2-deoxyglucose), compared to isoproterenol; format: cell-based; details: agonist 1×10^−5 M, 50 nM 3H-2-deoxyglucose; for Emax at 10 µM: read-out: Biological example 1: glucose uptake, activity compared to that of isoproterenol
Description: as §1
Differentiated L6-myotubes were serum-starved overnight in medium containing 0.5% fatty-acid free BSA and stimulated with an agonist, with a final concentration of 1×10^−5 M. After 1 h 40 min the cells were washed with warm glucose free medium or PBS twice and another portion of agonist was added to the glucose free medium. After 20 min the cells were exposed to 50 nM ^3H-2-deoxyglucose for 10 min before washed with ice cold glucose free medium or PBS three times and lysed with 0.2 M NaOH, 400 μL/well, for 1 h at 60° C. The cell lysate was mixed with 4 mL scintillation buffer (Emulsifier Safe, Perkin Elmer) and the radioactivity was detected in a β-counter (Tri-Carb 4810TR, Perkin Elmer). The activity for each compound is compared to that of isoproterenol.

Compound | Emax at 10 µM (L6-myotubes [1]) [%] | Biological example 1: glucose uptake, activity compared to that of isoproterenol (L6-myotubes [2]) | Emax at 10 µM (L6-myotubes [2]) [%] | Biological example 2: intracellular cAMP levels, activity compared to that of isoproterenol (L6-myotubes [1])
CC(=O)N(C)[C@H]1CC[C@@H](CC(C)(C)NC[C@H](O)c2cccc(F)c2)CC1.Cl [Example 180, N-((1S,4s)-4-(2-(((R)-2-(3-Fluorophenyl)-2-hydroxyethyl)amino)-2-methylpropyl)cyclohexyl)-N-methylacetamide hydrochloride] | < 25 | + + | – | –
CN(C)C(=O)N[C@H]1CC[C@@H](CC(C)(C)NC[C@H](O)c2cccc(F)c2)CC1 [Example 169, 3-((1S,4s)-4-(2-(((R)-2-(3-Fluorophenyl)-2-hydroxyethyl)amino)-2-methylpropyl)cyclohexyl)-1,1-dimethylurea hydrochloride] | 25 to 50 | + + + | – | –
CC(=O)N[C@H]1CC[C@H](CC(C)(C)NC[C@H](O)c2cccnc2C)CC1.Cl [Example 145, N-((1R,4r)-4-(2-(((R)-2-Hydroxy-2-(2-methylpyridin-3-yl)ethyl)amino)-2-methylpropyl)cyclohexyl)acetamide dihydrochloride] | < 25 | + + + | – | –
CC(C)(NC[C@H](O)c1cncc(F)c1)[C@H]1CC[C@@H](O)CC1 [Example 36, (1S,4s)-4-(2-(((R)-2-(5-Fluoropyridin-3-yl)-2-hydroxyethyl)amino)propan-2-yl)cyclohexan-1-ol] | < 25 | – | 25 to 50 | –
CC(C)(CC[C@H]1CC[C@@H](C(=O)O)CC1)NC[C@H](O)c1cncc(F)c1 [Example 114, (1S,4s)-4-(3-(((R)-2-(5-Fluoropyridin-3-yl)-2-hydroxyethyl)amino)-3-methylbutyl)cyclohexane-1-carboxylic acid] | < 25 | + + + | – | –
CC(=O)N[C@H]1CC[C@@H](CC(C)(C)NC[C@H](O)c2cccnc2C)CC1 [Example 143, N-((1S,4s)-4-(2-(((R)—H-hydroxy-2-(2-methylpyridin-3-yl)ethyl)amino)-2-methylpropyl)cyclohexyl)acetamide dihydrochloride] | < 25 | + + + | – | –
CO[C@H]1CC[C@H](C(C)(C)NC[C@H](O)c2cncc(F)c2)CC1 [Example 8, (R)-1-(5-Fluoropyridin-3-yl)-2-((2-((1r,4R)-4-methoxycyclohexyl)propan-2-yl)amino)ethan-1-ol] | < 25 | + + + | – | –
O[C@@H](CNC[C@H]1CC[C@H](OCc2ccccc2)CC1)c1cccc(F)c1 [Example 29, (R)-2-((((1r,4R)-4-(Benzyloxy)cyclohexyl)methyl)amino)-1-(3-fluoro-phenyl)ethan-1-ol] | < 25 | – | 25 to 50 | –
CC(C)(C[C@H]1CC[C@H](NC(=O)C2CCC2)CC1)NC[C@H](O)c1cccc(F)c1.Cl [Example 155, N-((1R,4r)-4-(2-(((R)-2-(3-Fluorophenyl)-2-hydroxyethyl)amino)-2-methylpropyl)cyclohexyl)cyclobutanecarboxamide hydrochloride] | – | + + + | – | + +
COC1CCC(CCC(C)(C)NC[C@H](O)c2cncc(F)c2)CC1 (stereo partly drawn) [Example 22, (R)-1-(5-Fluoropyridin-3-yl)-2-((4-((1r,4S)-4-methoxycyclohexyl)-2-methylbutan-2-yl)amino)ethan-1-ol dihydrochloride] | < 25 | – | 25 to 50 | –
O=C(N[C@H]1CC[C@H](CNC[C@H](O)c2cccc(F)c2)CC1)c1ccccc1 [Example 69, N-((1R,4r)-4-((((R)-2-(3-Fluorophenyl)-2-hydroxyethyl)amino)-methyl)cyclohexyl)benzamide] | < 25 | + + + | – | –
CCCS(=O)(=O)N[C@H]1CC[C@H](CC(C)(C)NC[C@H](O)c2cccc(F)c2)CC1 [Example 159, N-((1R,4r)-4-(2-(((R)-2-(3-Fluorophenyl)-2-hydroxyethyl)amino)-2-methylpropyl)cyclohexyl)propane-1-sulfonamide hydrochloride] | 25 to 50 | + + + | – | –
O[C@@H](CNC[C@H]1CC[C@@H](OCc2ccccc2)CC1)c1cccc(F)c1 [Example 25, (R)-2-((((1s,4S)-4-(Benzyloxy)cyclohexyl)methyl)amino)-1-(3-fluoro-phenyl)ethan-1-ol] | < 25 | – | 25 to 50 | –
CC(C)(CC[C@H]1CC[C@H](O)CC1)NC[C@H](O)c1cccc(F)c1 [Example 61, (1S,4r)-4-(3-(((R)-2-(3-Fluorophenyl)-2-hydroxyethyl)amino)-3-methyl-butyl)cyclohexan-1-ol] | < 25 | – | 25 to 50 | –
CN(C)S(=O)(=O)[C@H]1CC[C@H](CC(C)(C)NC[C@H](O)c2cccc(F)c2)CC1.Cl [Example 186, (1R,4r)-4-(2-(((R)-2-(3-Fluorophenyl)-2-hydroxyethyl)amino)-2-methyl-propyl)-N,N-dimethylcyclohexane-1-sulfonamide hydrochloride] | – | + + + | – | + +
CC(C)(C[C@H]1CC[C@H](NC(=O)C2CC2)CC1)NC[C@H](O)c1cccc(F)c1.Cl [Example 156, N-((1R,4r)-4-(2-(((R)-2-(3-Fluorophenyl)-2-hydroxyethyl)amino)-2-methylpropyl)cyclohexyl)cyclopropanecarboxamide hydrochloride] | – | + + + | – | + + +
CC(C)(C[C@H]1CC[C@H](N)CC1)NC[C@H](O)c1cccc(C#N)n1 [Example 132, 6-((S)-2-((1-((1r,4S)-4-Aminocyclohexyl)-2-methylpropan-2-yl)amino)-1-hydroxyethyl)picolinonitrile trihydrochloride] | 25 to 50 | + + + | – | –
CCOC(=O)CO[C@H]1CC[C@H](C(C)(C)NC[C@H](O)c2cccc(F)c2)CC1 [Example 123, Ethyl 2-(((1R,4r)-4-(2-(((R)-2-(3-fluorophenyl)-2-hydroxyethyl)amino)-propan-2-yl)cyclohexyl)oxy)acetate] | < 25 | + + + | – | –
CC(C)(C[C@H]1CC[C@H](C(=O)O)CC1)NC[C@H](O)c1cncc(F)c1 [Example 110, (1R,4r)-4-(2-(((R)-2-(5-fluoropyridin-3-yl)-2-hydroxyethyl)amino)-2-methylpropyl)cyclohexane-1-carboxylic acid acetate] | < 25 | – | < 25 | –
CC(C)(C[C@H]1CC[C@@H](C(=O)O)CC1)NC[C@H](O)c1cccc(F)c1 [Example 105, (1S,4s)-4-(2-(((R)-2-(3-Fluorophenyl)-2-hydroxyethyl)amino)-2-methylpropyl)cyclohexane-1-carboxylic acid] | < 25 | – | 25 to 50 | –
CC(C)(C[C@H]1CC[C@@H](NS(C)(=O)=O)CC1)NC[C@H](O)c1cccc(C(F)(F)F)n1 [Example 150, N-((1R,4s)-4-(2-(((S)-2-Hydroxy-2-(6-(trifluoromethyl)pyridin-2-yl)ethyl)-amino)-2-methylpropyl)cyclohexyl)methanesulfonamide dihydrochloride] | < 25 | + + + | – | –
CC(C)(C[C@H]1CC[C@H](NS(C)(=O)=O)CC1)NC[C@H](O)c1cccc(C#N)n1 [Example 140, N-((1S,4r)-4-(2-(((S)-2-(6-Cyanopyridin-2-yl)-2-hydroxyethyl)amino)-2-methylpropyl)cyclohexyl)methanesulfonamide] | < 25 | + + + | – | –
CNS(=O)(=O)[C@H]1CC[C@H](CC(C)(C)NC[C@H](O)c2cccc(F)c2)CC1 [Example 190, (1R,4r)-4-(2-(((R)-2-(3-Fluorophenyl)-2-hydroxyethyl)amino)-2-methyl-propyl)-N-methylcyclohexane-1-sulfonamide hydrochloride] | 25 to 50 | + + + | – | –
CC(C)(C[C@H]1CC[C@@H](NC(=O)C2CC2)CC1)NC[C@H](O)c1cccc(F)c1 [Example 166, N-((1S,4s)-4-(2-(((R)-2-(3-Fluorophenyl)-2-hydroxyethyl)amino)-2-methylpropyl)cyclohexyl)cyclopropanecarboxamide hydrochloride] | < 25 | + + + | – | –
